This note sets out measurements from ChEMBL document CHEMBL5154822, “Novel inhibitors of AChE and Aβ aggregation with neuroprotective properties as lead compounds for the treatment of Alzheimer's disease” (Eur J Med Chem, 2022).

Activity calls are given as the source filed them. No cut-off for these calls is given here.

In data set [1] the target is T1, Acetylcholinesterase (Mus musculus) (UniProt P21836).
T1 sequence (whole entry): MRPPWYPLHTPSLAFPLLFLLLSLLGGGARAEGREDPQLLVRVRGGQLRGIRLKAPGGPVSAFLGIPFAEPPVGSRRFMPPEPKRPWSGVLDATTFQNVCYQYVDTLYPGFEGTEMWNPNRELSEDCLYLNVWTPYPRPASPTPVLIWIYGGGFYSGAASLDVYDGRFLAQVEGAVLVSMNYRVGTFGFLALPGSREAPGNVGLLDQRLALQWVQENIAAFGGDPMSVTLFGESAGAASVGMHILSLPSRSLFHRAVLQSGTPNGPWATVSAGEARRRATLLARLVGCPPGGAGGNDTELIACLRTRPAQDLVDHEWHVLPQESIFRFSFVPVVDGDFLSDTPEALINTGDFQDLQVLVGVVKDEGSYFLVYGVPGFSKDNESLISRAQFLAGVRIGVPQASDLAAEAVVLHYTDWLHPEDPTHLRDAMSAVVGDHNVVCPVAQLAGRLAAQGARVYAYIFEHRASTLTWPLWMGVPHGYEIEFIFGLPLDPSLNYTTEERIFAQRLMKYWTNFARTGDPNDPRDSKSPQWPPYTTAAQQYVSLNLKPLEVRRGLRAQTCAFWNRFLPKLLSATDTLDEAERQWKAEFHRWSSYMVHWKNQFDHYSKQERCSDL
Nature of the data set: Inhibition of AChE in mouse cerebral cortex using acetylthiocholine iodide as substrate at 40 uM preincubated for 10 mins followed by substrate addition and measured for 180 secs by Ellman's spectrophotometric method. The format is tissue-based. The following applies: time 780.0 sec.

The target of data set [2] is T2, Acetylcholinesterase (Mus musculus, UniProt P21836).
T2 sequence (P21836 whole entry): T1 sequence (whole entry)
Description: Inhibition of AChE in mouse cerebral cortex using acetylthiocholine iodide as substrate preincubated for 10 mins followed by substrate addition and measured for 180 secs by Ellman's spectrophotometric method. Type of data set: tissue-based.

Data set [3] in a line: Cytotoxicity against human SH-SY5Y cells assessed as maximum non-cytotoxic concentration by CellTiter-Glo luminescent assay. Type of data set: toxicity, cell-based. The following applies: read-out: MNCC.
Data set [4] deals with SH-SY5Y. Nature of the data set: Neuroprotective activity in human SH-SY5Y differentiated neuronal cells assessed as inhibition of GA-induced neurite shortening by measuring increase in axon length at 0.5 uM by laser confocal microscope. Type of data set: functional, cell-based.
The test system of data set [5] is SH-SY5Y. Description: Neuroprotective activity in human SH-SY5Y differentiated neuronal cells assessed as inhibition of GA-induced axon morphology defects at 0.5 uM by laser confocal microscope. Type of data set: functional, cell-based.
Data set [6] concerns SH-SY5Y. Description: Neuroprotective activity in human SH-SY5Y differentiated neuronal cells assessed as inhibition of GA-induced cell death by measuring increase in cell viability at 0.5 to 5 uM measured after 24 hrs by MTT assay. The following applies: dose 0.5-5 µM. Type of data set: functional, cell-based.
Data set [7] deals with SH-SY5Y. Description: Antioxidant activity against okadaic acid-induced ROS generation in human SH-SY5Y cells assessed as reduction in DCF fluorescence intensity at 5 uM pretreated for 24 hrs followed by okadaic acid addition for 24 hrs by DCFH-DA dye based fluorescence analysis. The format is functional, cell-based. The following applies: time 48.0 hrs.
In data set [8] the test system is SH-SY5Y. Description: Neuroprotective activity in human SH-SY5Y cells assessed as inhibition of okadaic acid-induced mitochondrial dysfunction by measuring increase in red-to-green fluorescence intensity ratio pretreated for 24 hrs followed by okadaic acid addition for 24 hrs by JC-1 dye based fluorescence analysis. Type of data set: functional, cell-based. The following applies: dose 0.5-5 µM, time 48.0 hrs, DDE = dose-dependent effect.

Data set [9] has as its system Mus musculus. Description: In vivo inhibition of AChE in ICR mouse cerebral cortex using acetylthiocholine iodide as substrate at 10 mg/kg, ig measured after 1 hr by microplate reader analysis. Type of data set: functional, organism-based.
In data set [10] the test system is Mus musculus. Nature of the data set: In vivo inhibition of AChE in ICR mouse hippocampus using acetylthiocholine iodide as substrate at 10 mg/kg, ig measured after 1 hr by microplate reader analysis. The format is functional, organism-based.
Data set [11] relates to Mus musculus. Description: Antialzheimer activity against scopolamine-induced cognitive deficit ICR mouse model assessed as improvement in memory impairment by measuring reduction in number of errors at 5 mg/kg, ig by step-through passive avoidance test. The format is functional, organism-based.
The target of data set [12] is Cytochrome P450 2C9 (Homo sapiens, UniProt P11712). Nature of the data set: Inhibition of CYP2C9 in human liver microsomes using diclofenac as substrate preincubated for 10 mins followed by NADPH addition and measured after 10 mins by LC-MS/MS analysis. Type of data set: ADME, Microsome.
Chain of Cytochrome P450 2C9 (P11712 whole entry): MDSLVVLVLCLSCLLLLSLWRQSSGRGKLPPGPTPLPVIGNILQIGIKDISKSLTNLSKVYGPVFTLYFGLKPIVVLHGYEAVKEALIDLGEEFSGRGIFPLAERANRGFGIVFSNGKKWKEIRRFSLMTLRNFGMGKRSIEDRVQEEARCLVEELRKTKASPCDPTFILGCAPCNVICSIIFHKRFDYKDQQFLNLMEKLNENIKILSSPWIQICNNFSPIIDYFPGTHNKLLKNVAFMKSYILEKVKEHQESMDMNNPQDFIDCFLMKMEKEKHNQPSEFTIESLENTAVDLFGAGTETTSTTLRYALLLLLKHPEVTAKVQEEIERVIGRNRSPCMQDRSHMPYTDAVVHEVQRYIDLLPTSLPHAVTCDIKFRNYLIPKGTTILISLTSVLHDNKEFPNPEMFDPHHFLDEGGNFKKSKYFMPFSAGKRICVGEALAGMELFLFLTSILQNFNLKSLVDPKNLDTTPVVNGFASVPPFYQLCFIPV
Data set [13] addresses Cytochrome P450 2D6 (Homo sapiens, UniProt P10635). Description: Inhibition of CYP2D6 in human liver microsomes using dextromethorphan as substrate preincubated for 10 mins followed by NADPH addition and measured after 10 mins by LC-MS/MS analysis. The format is ADME, Microsome.
The nature of data set [14]: Inhibition of CYP3A4 in human liver microsomes using midazolam as substrate preincubated for 10 mins followed by NADPH addition and measured after 10 mins by LC-MS/MS analysis. The format is ADME, Microsome.
Data set [15] in a line: Inhibition of CYP3A4 in human liver microsomes using testosterone as substrate preincubated for 10 mins followed by NADPH addition and measured after 10 mins by LC-MS/MS analysis. Type of data set: ADME, Microsome.
For data set [16], the target named is Acetylcholinesterase (Homo sapiens) (UniProt P22303). Nature of the data set: Inhibition of AChE in glyceraldehyde-exposed human SH-SY5Y differentiated neuronal cells using acetylthiocholine as substrate at 50 nM by Ellman's spectrophotometric method. Type of data set: cell-based.
Chain of Acetylcholinesterase (Homo sapiens) (P22303 whole entry): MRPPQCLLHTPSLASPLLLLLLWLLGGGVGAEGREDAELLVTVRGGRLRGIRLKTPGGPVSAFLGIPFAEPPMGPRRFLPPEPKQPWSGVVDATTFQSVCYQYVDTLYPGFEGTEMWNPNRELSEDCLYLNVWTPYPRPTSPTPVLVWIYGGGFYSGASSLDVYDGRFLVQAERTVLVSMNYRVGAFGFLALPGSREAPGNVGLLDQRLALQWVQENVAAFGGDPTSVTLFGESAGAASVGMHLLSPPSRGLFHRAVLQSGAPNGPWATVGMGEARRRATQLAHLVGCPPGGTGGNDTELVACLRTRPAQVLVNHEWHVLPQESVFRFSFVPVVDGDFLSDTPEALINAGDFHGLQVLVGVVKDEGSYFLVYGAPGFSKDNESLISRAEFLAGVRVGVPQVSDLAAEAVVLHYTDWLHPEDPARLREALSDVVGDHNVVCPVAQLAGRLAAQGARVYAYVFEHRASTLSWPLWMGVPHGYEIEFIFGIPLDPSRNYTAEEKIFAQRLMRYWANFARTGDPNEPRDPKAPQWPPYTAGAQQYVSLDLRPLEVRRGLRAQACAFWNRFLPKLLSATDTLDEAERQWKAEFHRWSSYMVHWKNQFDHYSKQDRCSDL
Data set [17] shares this target. Description: Inhibition of AChE in human SH-SY5Y differentiated neuronal cells assessed as inhibition of GA-induced tau hyperphosphorylation at Ser396 residue at 10 nM by ELISA. The format is cell-based.
The subject of data set [18] is SH-SY5Y. Nature of the data set: Neuroprotective activity in human SH-SY5Y differentiated neuronal cells assessed as inhibition of GA-induced neurite shortening by measuring increase in axon length at 5 uM by laser confocal microscope. Type of data set: functional, cell-based.
Data set [19] relates to SH-SY5Y. Description: Neuroprotective activity in human SH-SY5Y differentiated neuronal cells assessed as inhibition of GA-induced axon morphology defects at 5 uM by laser confocal microscope. The format is functional, cell-based.
Data set [20] concerns Mus musculus. Description: In vivo inhibition of AChE in ig dosed ICR mouse cerebral cortex using acetylthiocholine iodide as substrate and measured after 1 hr by microplate reader analysis. Type of data set: functional, organism-based. The following applies: dose 1-4 mg/kg, DDE = dose-dependent effect.
For data set [21], the system named is Mus musculus. Description: In vivo inhibition of AChE in ig dosed ICR mouse hippocampus using acetylthiocholine iodide as substrate and measured after 1 hr by microplate reader analysis. The following applies: dose 1-4 mg/kg, DDE = dose-dependent effect. The format is functional, organism-based.
The subject of data set [22] is Mus musculus. Description: In vivo inhibition of AChE in ICR mouse cerebral cortex using acetylthiocholine iodide as substrate at 4 mg/kg, ig measured after 1 hr by microplate reader analysis. Type of data set: functional, organism-based.
In data set [23] the test system is Mus musculus. Description: In vivo inhibition of AChE in ICR mouse hippocampus using acetylthiocholine iodide as substrate at 4 mg/kg, ig measured after 1 hr by microplate reader analysis. The format is functional, organism-based.
Data set [24] deals with Mus musculus. Nature of the data set: Antialzheimer activity against scopolamine-induced cognitive deficit ICR mouse model assessed as improvement in memory impairment by measuring reduction in number of errors at 0.1 to 0.3 mg/kg, ig by step-through passive avoidance test. The format is functional, organism-based. The following applies: dose 0.1-0.3 mg/kg.

Chain of Cytochrome P450 2D6 (P10635 whole entry): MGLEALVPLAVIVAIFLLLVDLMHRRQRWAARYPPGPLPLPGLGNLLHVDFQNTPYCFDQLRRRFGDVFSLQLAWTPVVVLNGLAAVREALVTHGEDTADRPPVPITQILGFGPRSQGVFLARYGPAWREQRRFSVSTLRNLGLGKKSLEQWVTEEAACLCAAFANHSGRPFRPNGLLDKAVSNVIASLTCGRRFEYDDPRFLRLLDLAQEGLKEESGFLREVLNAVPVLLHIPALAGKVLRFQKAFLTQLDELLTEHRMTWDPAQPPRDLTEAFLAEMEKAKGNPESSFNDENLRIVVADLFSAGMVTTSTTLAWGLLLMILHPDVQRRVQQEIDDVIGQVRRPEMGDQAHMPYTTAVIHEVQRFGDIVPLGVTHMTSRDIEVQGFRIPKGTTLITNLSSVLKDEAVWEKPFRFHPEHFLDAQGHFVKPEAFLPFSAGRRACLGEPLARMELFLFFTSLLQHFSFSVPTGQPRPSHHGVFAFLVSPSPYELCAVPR

Regarding `COc1cc2c(cc1OC)S(=O)(=O)/C(=C/C1CCN(Cc3ccccc3)CC1)CCC2`, the inhibition in data set [1] is 32.8%.

Consider `COc1cc2c(cc1OC)S(=O)(=O)/C(=C/C1CCN(Cc3ccccc3)CC1)C2`, for which, in data set [2], the IC50 worked out at 4.7 nM.

Compound `COc1cc2c(cc1OC)S(=O)(=O)C(CC1(F)CCN(Cc3cccc(F)c3)CC1)C2` (stereo not given) had an IC50 in data set [2] of 5.1 nM.

In [1], `CCOC(=O)/C(=C\C1CCN(Cc2ccccc2)CC1)S(=O)(=O)c1ccc(OC)c(OC)c1` came in with an inhibition of 12.4%.

`COc1cc2c(cc1OC)S(=O)(=O)C(CC1(F)CCN(Cc3ccccc3)CC1)C2` (stereo not given) returned an IC50 in data set [2] of 4.1 nM.

In turn, `COc1cc2c(cc1OC)S(=O)(=O)C(CC1(F)CCN(Cc3ccccc3C)CC1)C2` (stereo not given) showed a concentration for half-maximal inhibition (IC50) in [2] of 12.1 nM.

In the case of `COc1cc2c(cc1OC)S(=O)(=O)C(CC1CCN(Cc3ccc(F)cc3F)CC1)C2` (stereo not given), in data set [2], the 50% inhibitory concentration (IC50) was 14.7 nM.

In turn, `COc1cc2c(cc1OC)S(=O)(=O)C(CC1CCN(Cc3c(F)cc(F)cc3F)CC1)C2` (stereo not given) showed an IC50 in data set [2] of 128 nM.

As to `COc1cc2c(cc1OC)C(=O)C(CC1CCN(Cc3ccccc3)CC1)C2` (stereo not given) [DONEPEZIL], the MNTC in data set [3] is 100 µM. For the same compound, the result in data set [4], in data set [5], in data set [6], in [7] and in [11] was Active. Also, in data set [8], the Activity result was “Dde”. In addition, the inhibition result in data set [9] and in data set [10] was “Active” each time.

In data set [2], `COc1ccc(S(=O)(=O)/C=C/C2CCN(Cc3ccccc3)CC2)cc1OC` yielded a concentration for half-maximal inhibition (IC50) of 67.6 nM.

With `COc1cc2c(cc1OC)S(=O)(=O)C(CC1CCN(Cc3ccccc3F)CC1)C2` (stereo not given), the 50% inhibitory concentration (IC50) in data set [2] was 11.5 nM.

`CO/C(=C\C1CCN(Cc2ccccc2)CC1)S(=O)(=O)c1ccc(OC)c(OC)c1` returned a half-maximal inhibitory concentration (IC50) in [2] of 8440 nM.

In the case of `COc1cc2c(cc1OC)S(=O)(=O)C(CC1(F)CCN(Cc3cccc(C)c3)CC1)C2` (stereo not given), the concentration for half-maximal inhibition (IC50) in data set [2] was determined as 3.8 nM.

In turn, `COc1cc2c(cc1OC)S(=O)(=O)C(CC1CCN(Cc3ccc(F)c(Cl)c3)CC1)C2` (stereo not given) had an IC50 in [2] of 11.5 nM.

Turning to `COc1cc2c(cc1OC)S(=O)(=O)C(CC1(F)CCN(Cc3ccc(F)cc3)CC1)C2` (stereo not given), the IC50 in [2] was 11.3 nM.

Consider `COc1cc2c(cc1OC)S(=O)(=O)C(F)(CC1CCN(Cc3cccc(F)c3)CC1)C2` (stereo not given) [listing 1 of 2 here], for which the half-maximal inhibitory concentration (IC50) in [12], in data set [13], in data set [14] and in [15] was > 20000 nM in each case.

On to `COc1cc2c(cc1OC)S(=O)(=O)C(CC1(F)CCN(Cc3ccc(F)c(Cl)c3)CC1)C2` (stereo not given), for which the IC50 in data set [2] stood at 12.9 nM.

`COc1cc2c(cc1OC)S(=O)(=O)C(CC1(F)CCN(Cc3ccccc3F)CC1)C2` (stereo not given) showed a concentration for half-maximal inhibition (IC50) in data set [2] of 8.5 nM.

Turning to `COc1cc2c(cc1OC)S(=O)(=O)C(CC1CCN(Cc3cccc(F)c3)CC1)C2` (stereo not given), the IC50 in data set [2] came to 4.4 nM.

As to `COc1cc2c(cc1OC)S(=O)(=O)C(CC1(F)CCN(Cc3ccccc3Cl)CC1)C2` (stereo not given), the concentration for half-maximal inhibition (IC50) in data set [2] stood at 5.5 nM.

Regarding `COc1cc2c(cc1OC)S(=O)(=O)C(CC1(F)CCN(Cc3ccccc3C(F)(F)F)CC1)C2` (stereo not given), in [2], inhibition was half-maximal at 3010 nM (IC50).

Turning to `COc1cc2c(cc1OC)S(=O)(=O)C(CC1(F)CCN(Cc3cccc(Cl)c3)CC1)C2` (stereo not given), half-maximal inhibition in [2] (IC50) was put at 5 nM.

As for `COc1cc2c(cc1OC)S(=O)(=O)C(CC1CCN(Cc3ccccc3)CC1)=C2`, the IC50 in data set [2] was determined as 317 nM.

`COc1cc2c(cc1OC)S(=O)(=O)C(CC1CCN(Cc3ccc(F)cc3)CC1)C2` (stereo not given) returned an IC50 in [2] of 11.3 nM.

With `COc1cc2c(cc1OC)S(=O)(=O)/C(=C/C1CCN(Cc3ccccc3)CC1)CC2`, in data set [2], 1820 nM corresponded to half-maximal inhibition (IC50).

With `COc1cc2c(cc1OC)S(=O)(=O)C(CC1(F)CCN(Cc3ccc(F)cc3F)CC1)C2` (stereo not given), half-maximal inhibition in data set [2] (IC50) required 7.1 nM.

Turning to `COc1ccc(S(=O)(=O)/C(Cl)=C/C2CCN(Cc3ccccc3)CC2)cc1OC`, in [2], 340 nM corresponded to half-maximal inhibition (IC50).

As for `COc1cc2c(cc1OC)S(=O)(=O)/C(=C\C1CCN(Cc3ccccc3)CC1)C2`, the half-maximal inhibitory concentration (IC50) in [2] was 11.1 nM.

Turning to `COc1cc2c(cc1OC)S(=O)(=O)C(F)(CC1CCN(Cc3cccc(F)c3)CC1)C2` (stereo not given) [listing 2 of 2 here], the inhibition entry in data set [16], in data set [17], in data set [22] and in data set [23] was “Active” throughout. Besides, the outcome in [4], in data set [5], in data set [18], in data set [19], in [6] and in [7] was Active. For the same compound, in [24], the result was Active. For the same compound, in data set [8], the Activity result is “Dde”. In addition, the inhibition entry in [20] and in data set [21] was “Dde” in each case.

In [2], `COc1cc2c(cc1OC)S(=O)(=O)C(CC1CCN(Cc3ccccc3)CC1)C2` (stereo not given) showed an IC50 of 4.4 nM.

In the case of `COc1cc2cc(CC3CCN(Cc4ccccc4)CC3)sc2cc1OC`, the inhibition in [1] stood at 46.6%.
